System: rhodopsin
Test: Rhodopsin regeneration after topical eye drops in mice
Format: in vivo, Balb/c mice
Conditions: for rhodopsin recovered in 1 h in the dark: 10% PBN eye drops, DA control is 100%
Protocol: Panel A: Application scheme and harvesting of the eye. 3 h group received 2 applications and 6 h group received 3 applications. Panel B: Rhodopsin content was measured as pmole/eye. In 1 h in the dark, untreated eyes (NT-LA 1 h DA, no treatment-light adapted followed by 1 hour dark adaptation) and vehicle-treated eyes recovered 75-80% rhodopsin [dark-adapted (DA) control is 100%], whereas 3 h PBN recovered only 43% and 6 h PBN only 29%. (***P<0.0001 compared to vehicle, n=8; ##p<0.005 between 3 h and 6 h group, n=8).
An eye drop formulation was used with various absorption enhancers for topical application of PBN to mouse eyes. […] One hour dark adaptation followed by light causes 75-80% recovery of bleachable rhodopsin in the Balb/c mice (FIG. 18B, NT-LA 1 h DA). The eye drop without PBN (vehicle) had no effect on rhodopsin regeneration (FIG. 18B, vehicle).
Eye drop formulations were prepared as described in Example 7 and contained 5% or 10% of a PBN derivative. The eye drop formulations were applied to Balb/c mice by the 6 h group application scheme shown in FIG. 18A, in which the eye drops were applied at 6, 3, and 0 h before dark adaptation. The eye drops were applied to completely light-adapted mouse eyes, and the mice were then moved to the dark for 1 h to allow the regeneration of bleachable rhodopsin. One hour dark adaptation followed by light causes […] recovery of bleachable rhodopsin in untreated mice (00, No Treatment). The eye drop without any nitrones (vehicle) had no effect on rhodopsin regeneration (000, vehicle).

For `CC(C)(C)/[N+]([O-])=C/c1ccccc1` [Compound 1, α-phenyl-N-tert-butyl nitrone], the “rhodopsin recovered in 1 h in the dark” value (3 h group (2 applications)) was 43%, the “rhodopsin recovered in 1 h in the dark” value (6 h group (3 applications)) was 29% and the “% of Rhodopsin recovery” value (10% in eye drop at 6, 3 and 0 h before dark adaptation, LA + 1 h DA, DA control = 100) was 48.67%. For the same compound, the “inhibition of rhodopsin regeneration as eye drop” value (eye drop formulation, summary of Table 7) was “inhibited rhodopsin regeneration significantly” and the “regeneration of bleachable rhodopsin” value (one drop (~50 μl) containing 10% PBN, 1 h dark) was “significantly inhibited”.

Source: patent US20130225694A1, “COMPOSITIONS AND METHODS OF INHIBITING RETINAL DEGENERATION” (Oklahoma Medical Research Foundation, priority 2012, published 2013)
